Data set [1] can be described thus: Gelation experiment with dithienylcyclopentene derivatives (heat, cool, no gravitational flow; UV-vis/CD). Format: physicochemical. The conditions noted are these: for Solvents in which gelation did occur: cooling to room temperature, 1 ml solvent. As to the method:
In a typical gelation experiment, a carefully weighed amount of the dithienylcyclopentene derivative under investigation and 1 ml of the solvent are placed in a test tube, which is sealed and then heated until the compound is dissolved. The solution is allowed to cool to room temperature. […] The gelation process could be followed by UV-vis and CD spectroscopy as depicted in Figure 23. […] Increasing the concentration to 1.8 mM causes gelation of the solvent, which is accompanied by a change of the UV-visible spectrum, together with the appearance of a strong CD signal at 323 nm (Figure 22 A and B). Similar changes in the UV-vis and CD spectrum are observed upon gelation of the 1.8 mM solution of D in toluene by cooling to a temperature below the sol-gel phase transition(from here on referred to as gel(o). From a plot of the increase of the CD signal versus the temperature the sol-gel phase transition temperature of gel(o) was determined to be 29°C for a 1.8 mM solution of D in toluene.

Data set [2] in a line: Photoswitching of a gel of compound D. Format: physicochemical. The method, then: In a typical photoswitching experiment a solution (1.8 mM) of Compound D in toluene was prepared by cooling from 70°C to the desired temperature (typically between 30°C and 60°C, i.e. above the gel-sol phase transition temperature of the open form of D) in a cuvette of 1 mm path length. This solution was then irradiated at λ1 = 313 nm to convert the ring-open form of Compound D to the ring-closed form. By using a 150 W Xe lamp and a 313 nm bandpass filter, the photostationary state (PSS) was reached typically within 10 minutes, which consist of 60mol% of the closed form and 40mol% of the open form.
Gels of the closed form of D can also be dissolved by converting the closed form to the open form by irradiation with light of wavelength □□. Irradiation of gel(c,I) or gel(c,II) with □□ > 450 nm at while keeping the temperature between 30°C and 60°C causes dissolution of the gel to give a solution of the open form D, of which the UV-vis and CD spectra are identical to that of the starting solution. This process of gelation-dissolution by alternating irradiations with UV (313 nm) and Vis (> 450 nm) light can be repeated many times, showing that the photo-induced gelation process is fully reversible. In another experiment a solution (1.8 mM) of Compound D in toluene was prepared by cooling from 70°C to a temperature below the gel-sol phase transition temperature of the open form of (typically between 20°C and 29°C) in a cuvette of 1 mm path length.

The test system of data set [3] is COS-7 cells. Put plainly: Transfection of COS-7 cells with β-galactosidase reporter plasmid. Format: cell-based. As to the method: Transfections are carried out following standard protocols as is described in EP 0755924. In numerous publications variations of transfection protocols are given. A person acquainted with the field of non-viral transfections, in particular transfections using cationic amphiphiles will be able to use the cationic amphiphiles of the invention in transfection methods known per se. In standard experiments COS-7 cells are transfected with plasmid DNA containing the β-galactosidase reporter gene. Upon successful transfection the cell produces the enzyme β-galactosidase whose activity can be easily measured. […] Toxicity of the cationic amphiphiles towards the cells can be monitored qualitatively and quantitatively by visual inspection of the cells and by a protein determination.
[…] The plasmid concentration was determined by measuring the absoption at 260 nm using the relation 1.0 OD = 50 µg/ml. […]
The complex of cationic amphiphile/DOPE (1:1) with pCMV β-gal was prepared at the charge ratio 2.5:1 (15 nmol lipid and 1 µg DNA), in 100µl 10 mM HEPES (pH=7.4, 150 mM NaCl). […] Control wells underwent identical steps except that no cationic amphiphile was added. β-galactosidase activity was observed whereas in control wells no activity was detected. […]

In data set [4] the test system is COS-7 cells. Description: Toxicity of cationic amphiphile towards the cells (protein determination). The conditions noted are these: protein determination compared with control wells. Format: cell-based. The method, then: Transfections are carried out following standard protocols as is described in EP 0755924. In numerous publications variations of transfection protocols are given. A person acquainted with the field of non-viral transfections, in particular transfections using cationic amphiphiles will be able to use the cationic amphiphiles of the invention in transfection methods known per se. In standard experiments COS-7 cells are transfected with plasmid DNA containing the β-galactosidase reporter gene. Upon successful transfection the cell produces the enzyme β-galactosidase whose activity can be easily measured. Other plasmids comprising alternative reporter genes such as the gene encoding Green Fluoerscent Protein or Chloroamphenicol Acetyl Transferase are suited as well. For analyzing stable transfection a plasmid containing the neomycin resistance gene can be used. Toxicity of the cationic amphiphiles towards the cells can be monitored qualitatively and quantitatively by visual inspection of the cells and by a protein determination.
The complex of cationic amphiphile/DOPE (1:1) with pCMV β-gal was prepared at the charge ratio 2.5:1 (15 nmol lipid and 1 µg DNA), in 100µl 10 mM HEPES (pH=7.4, 150 mM NaCl). […] Control wells underwent identical steps except that no cationic amphiphile was added. β-galactosidase activity was observed whereas in control wells no activity was detected.

Data set [5] is described as follows: Solvent scope of N,N'-dialkylaldaramides or N,N'-dialkylpentaramides (gelation behaviour in solvents). Format: physicochemical. An excerpt: It will be understood that the use of the present gelling agents or thickeners to prepare a gel or to thicken a composition is also encompassed by the invention. As is well-known, gelling behavior of compounds or compositions is highly unpredictable. […] Preferably, the gelling phenomenon is thermoreversible.
(§1) Preferred examples include aromatic and non-aromatic hydrocarbons, alcohols, ethers, esters, aldehydes, alkanoic acids, epoxides, amines, halogenated hydrocarbons, silicon oils, vegetable oils, phosphoric esters, sulfoxides and mixtures thereof. The compound also produces a gel in hydrophilic solvents such as water. The choice of composition for gelling can be tuned to the invented use. For instance in situations where clinical application of a vehicle of the invention is intended biocompatibility of the composition is preferred. In order to obtain a gel, the gelling agent or thickener is preferably mixed with the composition to be transformed to a gel in an amount of between 0.01 and 50 wt.%, based on the weight of the composition. In a preferred embodiment the mixture of the gelling agent or thickener and the composition is heated to allow for an even better gel formation or thickening. Typically, the heating will involve raising the temperature of the mixture to about 30 - 175 °C until a clear solution is obtained. In an alternative embodiment, the gelling agent is first dissolved in a polar or apolar solvent and then added to or sprayed into a composition or solvent to be converted into a gel.

Data set [6] can be described thus: Concentration range of N,N'-dialkylaldaramides or N,N'-dialkylpentaramides in solvents. Format: physicochemical.
Text: as §1

Where [7] appears, read: 1.8 mM in toluene, irradiation at 313 nm.

Where only a bound is given, the exact number is not on record here.

Consider `Cc1sc(C(=O)N[C@H](C)c2ccccc2)cc1C1=C(c2cc(C(=O)N[C@H](C)c3ccccc3)sc2C)CCC1` [Compound D, 1,2-Bis(2'-methyl-5'-{[((R)-1-phenylethyl)amino]carbonyl}thien-3'-yl)cyclopentene], for which the “sol-gel phase transition temperature of gel(o)” value in data set [1] (1.8 mM solution in toluene, open form, from CD signal versus temperature) amounted to 29 °C. Moreover, in data set [1] (Toluene), the “Concentration that causes gelation of the solvent” value came to 1800 µM. The “Solvents in which gelation did occur” value in data set [1] is reported as “cyclohexane, 1-phenyloctane, toluene, n-butyl ether, benzene, tetralin”. In addition, the “sol-gel phase transition temperature of gel(c,I)” value in data set [2] (1.8 mM in toluene after irradiation at 313 nm) came to 62 °C. The “Time without gel formation, solutions kept in the dark” value in data set [2] (1.8 mM in toluene, between 20°C and 29°C, not irradiated) was more than 1 h. Besides, in data set [2] (setting [7]), the “closed form in the photostationary state (PSS)” value worked out at 60 mol% and the “open form in the photostationary state (PSS)” value came to 40 mol%. Also, the “Time to reach the photostationary state (PSS)” value in data set [2] (1.8 mM in toluene, irradiation at 313 nm, 150 W Xe lamp) is not above 10 min. Besides, the “Increase of thermal stability compared to gel(o)” value in data set [2] (gel(c,I), toluene) is “more than 30 °C”.

Consider `Cc1sc(C(=O)Nc2ccccc2)cc1C1=C(c2cc(C(=O)Nc3ccccc3)sc2C)CCC1` [Compound C, 1,2-Bis(5'-(anilinocarbonyl)-2'-methyl-thien-3'-yl) cyclopentene], for which, in data set [1], the “Solvents in which gelation did occur” value was 1-phenyloctane, toluene, n-butylether, benzene, tetralin.

With `Cc1sc(C(=O)N[C@H](C)C2CCCCC2)cc1C1=C(c2cc(C(=O)N[C@H](C)C3CCCCC3)sc2C)CCC1` [Compound E, 1,2-Bis(2'-methyl-5'-{[((R)-1-cyclohexylethyl)amino]carbonyl}thien-3'-yl)cyclopentene], in data set [1], the “Solvents in which gelation did occur” value is “hexadecane, cyclohexane, 1-phenyloctane, toluene, n-butylether, benzene, tetralin, 1,4-dioxane, and n-butyl acetate”.

Turning to “1-(9'-cis-octadecenyl)-4-(10"-cis-nonadecenyl) pyridinium Chloride”, the β-galactosidase activity entry with COS-7 cells [3] (cationic amphiphile/DOPE (1:1) with pCMV β-gal, charge ratio 2.5:1, assay 48 later) is on record as “observed”. Besides, in the data set on COS-7 cells [3] (cationic amphiphile/DOPE (1:1), charge ratio 2.5:1), the “β-galactosidase activity compared with Lipofectin™” value is listed as “substantially higher”. For the same compound, in the data set on COS-7 cells [4], the “toxicity towards the cells” value was “no toxicity”.

On to `CCCCCCCCCCCCNC(=O)[C@@H](O)[C@H](O)[C@H](O)[C@@H](O)C(=O)NCCCCCCCCCCCC` [Compound 12Gal12, didodecyl galactaramide], for which the Solvent scope result in data set [5] (1,2-Dichloro-ethane), in data set [5] (Cyclohexane), in data set [5] (Ethanol), in data set [5] (Toluene), in data set [5] (n-Butylacetate) and in data set [5] (water) was “n.s” each time.

With `CC(C)=CCCC(C)CCNC(=O)[C@@H](O)[C@@H](O)[C@H](O)[C@@H](O)C(=O)NCCC(C)CCC=C(C)C` (stereo partly shown) [CitGluCit, dicitronellyl glucaramide], the Solvent scope result in data set [5] (Cyclohexane) is reported as “g. ,c*”.

Consider `O=C(NC1CCCCCCCCCCC1)[C@@H](O)[C@@H](O)[C@H](O)[C@@H](O)C(=O)NC1CCCCCCCCCCC1` [Compound C12GluC12, dicyclododecyl glucaramide], for which the Concentration range in data set [6] (1,2- Dichloroethane) is less than 50%; in data set [6] (Cyclohexane) it was less than 5%; in data set [6] (Dow Corning 702) it was less than 50%; in data set [6] (Methyllaurate), less than 5%; in data set [6] (Toluene), less than 50%; in data set [6] (n-Butylacetate) it was less than 50%. For the same compound, the Solvent scope entry is reported as “g/c” in data set [5] (Dimethylsulfoxide), “g/c” in data set [5] (Ethanol) and “n.s” in data set [5] (water).

Turning to `O=C(NC1CCCCC1)[C@@H](O)[C@@H](O)[C@H](O)[C@@H](O)C(=O)NC1CCCCC1` [Compound C6GluC6, dicyclohexyl glucaramide], the Concentration range was less than 5.0% in data set [6] (1,2- Dichloroethane); less than 2.5% in data set [6] (Cyclohexane); less than 2.5% in data set [6] (Dow Corning 702); less than 2.5% in data set [6] (Methyllaurate); less than 2.5% in data set [6] (Toluene); less than 2.5% in data set [6] (n-Butylacetate). Further, the Solvent scope result is on record as “g/c” in data set [5] (1,2-Dichloro-ethane), “g/c” in data set [5] (Dimethylsulfoxide), “g/c” in data set [5] (Ethanol) and “n.s” in data set [5] (water).

The record behind these values is EP1350507A1, “Delivery of a substance to a pre-determinated site” (Applied NanoSystems B.V., priority 2002, dated 2003).
